Experimental data from patent US10137105B2, “Combination treatment protocol” (Bionomics Limited, priority 2015, dated 2018).

Experiments:
CLL cells [1] = assay: Chromatin condensation (Hoechst 33342) apoptosis scoring in freshly isolated CLL cells; type: cell-based, human
Experimental: (§1) CLL cells were obtained from consented patients at the Norris Cotton Cancer Center. Cells were purified by centrifugation in Ficoll-Paque PLUS from 10 mL of blond. Lymphocytes were plated in RPMI 1640 plus 10% serum at 1×10^6 cells/mL after three washes in PBS+2 mmol/L EDTA. Cells were either incubated immediately with reagents or after 24 h incubation with confluent layers of CD154+ stromal cells (L 4.5) at a ratio of 5:1.
(§2) Cells were incubated for […] with 2 μg/mL Hoechst 33342 at 37° C. and visualized with a fluorescent microscope. At least 200 cells were scored for each sample. The percentage of cells with condensed chromatin was recorded.

CLL cells [2] = assay: Immunoblot analysis (PARP cleavage, pJNK, Noxa) in CLL cells; type: cell-based, human
Experimental: as §1
(§3) Cells were lysed in urea sample buffer [4 mol/L urea, 10% β-mercaptoethanol, 6% w/v SDS, 125 mmol/L Tris (pH 6.8), 0.01% w/v bromphenol blue, and protease/phosphatase inhibitor cocktail] and boiled for 5 min. Proteins were subsequently separated by SDS-PAGE (10 or 15% w/v) and transferred to polyvinylidene difluoride membrane (Millipore). Membranes were blocked with 5% w/v nonfat milk in TBS and 0.05% w/v Tween 20, and were probed with the appropriate primary antibody overnight. Subsequently, membranes were washed in TBS and 0.05% w/v Tween 20, and then incubated with secondary antibody conjugated to horseradish peroxidase. Proteins were visualized by enhanced chemiluminescence (Amersham). Actin was used as a loading control in Western blots.

Jeko-1 cells = assay: Kinetics of apoptosis in Jeko-1 cells (Western blots); type: cell-based; details: 20 nM EX2 (FIG. 6)
Experimental: FIG. 6: Kinetics of compounds of Formula (I) induced apoptosis in Jeko-1 cells. Western blots of Jeko-1 cells incubated with 20 nM compounds of Formula (I). “C”=a control cell line incubated with 2 μM vinblastine as a positive control for protein expression.
as §3

CLL cells on L4.5 stroma = assay: Apoptosis of CLL cells co-incubated 24 h on CD154+ L4.5 stromal cells; type: cell-based, human
Experimental: as §1, §2
The experiments above have shown that CLL cells are usually very sensitive to EX2. However, these cells were isolated from peripheral blood, and the real problem to curing CLL is to be able to kill cells that reside in the lymph node or bone marrow niche. To mimic this niche, we have used L4.5 cells that express CD154. Co-incubation of CLL cells on this stroma for 24 h elicits marked resistance to many drugs including the BCL-2 inhibitor ABT-199 (FIG. 7). […] However, when ABT-199 and EX2 were combined, marked apoptosis was again observed. For example, 100 nM ABT-199 alone induced about 10% apoptosis, whereas when combined with 1 μM EX2, >60% apoptosis was observed within 6 h. The combination of 1 μM EX2 and 1 μM ABT-199 induced about 80% apoptosis. […]

[3] = tested on: normal peripheral lymphocytes; assay: Toxicity to normal peripheral lymphocytes (PARP cleavage, chromatin condensation); type: cell-based, human; details: for PARP cleavage / apoptosis in normal peripheral lymphocytes: 0-1 μM EX2, 1-10 nM ABT-199 or 100 nM dinaciclib, each alone
Experimental: as §2, §3
To test the potential toxicity of EX2, normal peripheral lymphocytes were isolated from a healthy volunteer and incubated with EX2 alone or in combination with ABT-199.

hERG channel = hERG channel (Homo sapiens, UniProt Q12809); assay: hERG channel inhibition, in vitro testing; type: biochemical
Excerpt: (§4) Signs of cardiomyopathy were decreased in severity and incidence by 14 days after the 2-cycles of treatment, indicating recovery or reversibility of the effects. The implications of these findings for humans are not clear as these cardiovascular effects were not observed in dog toxicity studies. […] Thus an effect on the hERG channel is expected to be slight, if any, at efficacious doses of Example 2.

[4] = Dog toxicity studies, cardiovascular effects; type: in vivo; details: dogs
Excerpt: as §4

[5] = Cardiovascular safety pharmacology study in telemetered dogs; type: in vivo, dog; details: doses up to 0.8 mg/kg (highest dose assessed)
Excerpt: as §4

[6] = 2-cycle rat toxicity study; type: in vivo; details: rats, 2 cycles; decreased in severity and incidence by 14 days after treatment
Excerpt: as §4

advanced solid tumors = assay: Phase I study of Example 2 in subjects with advanced solid tumors; type: in vivo, human
Experimental: (§5) The recommended Phase 2 dose (RP2D) of Example 2 is evaluated in subjects with advanced solid tumors. Dosing is at a level of 2.1 mg/m^2. The dose of 16 mg/m^2 is deemed to be an MTD. In this study, adverse events are seen across all dose groups. The two most common categories of AE's are gastrointestinal disorders (nausea, vomiting, constipation) and general disorders (predominantly fatigue). Disorders related to bone marrow suppression are rare. Anemia is reported in one patient at a dose level of 8.4 mg/m^2 and in two patients at a dose level of 18.9 mg/m^2. […] Similarly, in a phase 11 study of Example 2 in patients with malignant pleural mesothelioma grade 1-2 gastrointestinal and general disorders are the predominant AE's: in 87% and 50% of patients correspondingly. Grade 3 fatigue is observed in 8% of patients. Finally, grade 1-2 anemia is reported in 33% of study participants.
Thus, this study employs 8 mg/m^2 iv on days 1 and 8 (cycle 1) or 8 and 15 (cycles 2-6) of a 21-day cycle as a starting dose of Example 2. This dose corresponds to a dose one tier below that sufficient to induce disruption of microtubules, yet also is lower than the currently established MTD in a Phase I study of Example 2 in patients with solid tumors. […] The study follows a standard 3+3 Phase I design (between 3 and 6 patients are enrolled at each dose tier). The dose of the drug is escalated to 16 mg/m^2, toxicities permitting. If toxicities emerge at dose level 1, the dose of Example 2 is de-escalated to 4 mg/m^2. […] Preliminary assessment of response and pharmacodynamic endpoints of treatment with Example 2 is assessed at several dose levels allowing for more careful selection of RP2D in CLL.

[7] = tested on: malignant pleural mesothelioma; assay: Phase II study of Example 2 in patients with malignant pleural mesothelioma; type: in vivo, human
Experimental: as §5

microtubules in PBMCs = assay: Disruption of microtubules in PBMCs of dosed subjects; type: in vivo, human; details: doses of 12.6 and 16 mg/m^2
[8] = healthy volunteer, 6 h, 0-1 μM EX2

Chain of hERG channel (Q12809 whole entry): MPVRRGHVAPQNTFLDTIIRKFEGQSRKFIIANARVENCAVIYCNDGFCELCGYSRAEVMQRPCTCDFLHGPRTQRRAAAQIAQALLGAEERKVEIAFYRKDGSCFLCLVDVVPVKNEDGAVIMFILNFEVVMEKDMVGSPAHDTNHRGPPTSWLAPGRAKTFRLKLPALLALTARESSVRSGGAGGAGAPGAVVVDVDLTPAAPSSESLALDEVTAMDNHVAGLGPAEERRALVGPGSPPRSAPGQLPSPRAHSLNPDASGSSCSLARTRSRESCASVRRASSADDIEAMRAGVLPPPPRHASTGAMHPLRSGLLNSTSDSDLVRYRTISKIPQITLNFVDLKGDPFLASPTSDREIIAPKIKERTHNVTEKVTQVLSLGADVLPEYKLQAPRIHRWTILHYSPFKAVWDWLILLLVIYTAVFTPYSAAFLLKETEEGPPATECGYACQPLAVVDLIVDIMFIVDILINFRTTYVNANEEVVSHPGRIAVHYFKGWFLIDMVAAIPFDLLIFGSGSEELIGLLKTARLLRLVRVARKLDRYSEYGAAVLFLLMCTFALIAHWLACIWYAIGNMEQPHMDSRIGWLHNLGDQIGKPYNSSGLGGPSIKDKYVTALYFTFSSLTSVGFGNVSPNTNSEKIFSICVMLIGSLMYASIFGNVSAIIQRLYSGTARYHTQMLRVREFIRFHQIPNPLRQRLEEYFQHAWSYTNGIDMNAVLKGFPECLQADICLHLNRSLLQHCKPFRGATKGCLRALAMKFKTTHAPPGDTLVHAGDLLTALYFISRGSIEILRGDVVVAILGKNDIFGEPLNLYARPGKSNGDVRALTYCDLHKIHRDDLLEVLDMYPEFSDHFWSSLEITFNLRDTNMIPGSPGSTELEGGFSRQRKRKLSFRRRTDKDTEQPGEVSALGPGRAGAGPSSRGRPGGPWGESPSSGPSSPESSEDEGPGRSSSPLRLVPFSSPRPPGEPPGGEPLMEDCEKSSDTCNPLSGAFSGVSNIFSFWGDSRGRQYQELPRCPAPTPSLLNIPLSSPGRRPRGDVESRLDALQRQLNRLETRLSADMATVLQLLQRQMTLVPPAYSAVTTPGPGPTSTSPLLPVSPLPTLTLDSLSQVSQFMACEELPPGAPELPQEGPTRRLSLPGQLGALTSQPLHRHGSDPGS

Compound: COc1cc(C(=O)c2c(C)oc3c(OP(=O)([O-])[O-])c(OC)ccc23)cc(OC)c1OC.[Na+].[Na+] [Example 2, Disodium 6-methoxy-2-methyl-3-(3,4,5-trimethoxybenzoyl)benzofuran-7-yl phosphate]
- potency as inducer of apoptosis compared with vinblastine and combretastatin A4 (CLL cells [1]; chromatin condensation and PARP cleavage, 6 h, 3-6 patients): more potent inducer of apoptosis
- concentration at which apoptosis (chromatin condensation) was observed (CLL cells [1]; freshly isolated CLL cells, media with 0-1 μM EX2, 6 h (FIG. 1)): 10 to 100 nM
- PARP cleavage in presence of JNK inhibitor VIII (CLL cells [2]; 0-1 μM EX2, 6 h, with JNK inhibitor VIII): completely prevented
- PARP cleavage by 24 h (CLL cells [2]; 20 nM, patient 114, incubated up to 24 h (FIG. 5)): almost total cleavage of PARP
- JNK activation and PARP cleavage five hours after removing EX2 (CLL cells [2]; 1 h pulse treatment, then 5 h without EX2, versus continuous incubation): still observed albeit slightly less
- concentration at which apoptosis, pJNK and Noxa expression began to appear (CLL cells [2]; 6 h, patient 49 (FIG. 2A)): 5 nM
- time to activation of JNK (CLL cells [2]; CLL cells incubated with EX2): less than one hour
- pJNK and NOXA in protein lysates (CLL cells [2]; same concentrations of EX2 (10-100 nM), 6 h): increased
- time by which apoptosis was complete (Jeko-1 cells): up to 24 h
- apoptosis of co-cultured CLL cells, EX2 alone (CLL cells on L4.5 stroma; 1 μM EX2, 24 h on L4.5 stroma then 6 h drug): no apoptosis observed
- Noxa induction in normal peripheral lymphocytes [3, 8]: no Noxa was induced
- pJNK in normal peripheral lymphocytes [3, 8]: activated
- PARP cleavage / apoptosis in normal peripheral lymphocytes ([3]; healthy volunteer, 6 h): no significant PARP cleavage or chromatin condensation
- IC50 (hERG channel): > 979 µM
- effects on the cardiovascular system [4]: no effects on the cardiovascular system
- effects on cardiovascular or respiratory function [5]: no effects on cardiovascular or respiratory function
- cardiac finding [6]: dose-dependent, reversible cardiomyopathy
- anemia, patients reported (advanced solid tumors; dose level 8.4 mg/m^2): one patient
- anemia, patients reported (advanced solid tumors; dose level 18.9 mg/m^2): two patients
- grade 4 events (advanced solid tumors; dose level 18.9 mg/m^2, same subject): Two grade 4 events (myocardial infarction and peripheral neuropathy)
- MTD (advanced solid tumors; subjects with advanced solid tumors): 16 mg/m^2
- Grade 3 fatigue, patients [7]: 8%
- grade 1-2 anemia, study participants [7]: 33%
- grade 1-2 gastrointestinal disorders, patients [7]: 87%
- grade 1-2 general disorders, patients [7]: 50%
- effect on microtubules in PBMCs (microtubules in PBMCs): briefly disrupt microtubules

Compound: CC1(C)CCC(CN2CCN(c3ccc(C(=O)NS(=O)(=O)c4ccc(NCC5CCOCC5)c([N+](=O)[O-])c4)c(Oc4cnc5[nH]ccc5c4)c3)CC2)=C(c2ccc(Cl)cc2)C1 [ABT-199, reference compound]
- apoptosis (CLL cells on L4.5 stroma; 100 nM ABT-199 alone, CLL cells on stroma, 6 h): about 10%
- chromatin condensation in normal peripheral lymphocytes ([3]; ABT-199 1-10 nM with or without EX2, 6 h): no chromatin condensation was observed
- PARP cleavage / apoptosis in normal peripheral lymphocytes ([3]; healthy volunteer, 6 h): slight PARP cleavage

Compound: COc1cc(C(=O)c2c(C)oc3c(O)c(OC)ccc23)cc(OC)c1OC [Example 1, 2-Methyl-7-hydroxy-3-(3,4,5-trimethoxybenzoyl)-6-methoxybenzofuran]
- IC50 (hERG channel): > 6.71 µM

Compound: CCc1cnn2c(NCc3ccc[n+]([O-])c3)cc(N3CCCC[C@H]3CCO)nc12 [Dinaciclib, reference compound]
- PARP cleavage / apoptosis in normal peripheral lymphocytes ([3]; healthy volunteer, 6 h): some apoptosis
